SMILES strings stand for the structures.

The target of this assay is LRRK2 (Homo sapiens (Human), UniProt Q5S007, G2019S). The assay is described as follows: In Vitro LRRK2 Assay (LRRK2 Ki). Type of assay: biochemical. On the procedure: In Vitro LRRK2 Lanthascreen Binding Assay
This assay was used to determine a compound's potency in inhibiting activity of LRRK2 by determining, Kiapp, IC50, or percent inhibition values.
Binding of the Alexa Fluor® “tracer” to a kinase is detected by addition of a Eu-labeled anti-GST antibody.
12 pt curve. […] Stamp 5 ul to assay plate. Final top test concentration 100 uM
In Reaction Buffer, 5 ul of DMSO (3%) was added to total and blank wells and 5 ul of Eu-labeled anti-GST antibody (6 nM) was added to blank wells. Add 5 ul LRRK2 (30 nM)/Eu-labeled anti-GST antibody (6 nM) mix to compound and total wells.
Incubate plates at room temperature for 1 hour on a plate shaker (gentle shaking). Read on Perkin Elmer EnVision reader HTRF protocol
Subtract mean background values from all data points. Calculate % of control for each test value. Plot % of control vs Compound concentration. Calculate Ki Value (xlfit curve fitting-Morrison equation). Results expressed as a Ki in μM. Equation for Ki: Y=V0*(1−((x+Ki*(1+S/Km)+Et)/(2*Et)−(((x+Ki*(1+S/Km)+Et)^2−(4*Et*x))^0.5)/(2*Et)))
This assay was used to determine a compound's potency in inhibiting activity of LRRK2 by determining, Kiapp, IC50, or percent inhibition values. In a polypropylene plate, LRRK2, fluorescently-labeled peptide substrate, ATP and test compound were incubated together. Using a LabChip 3000 (Caliper Life Sciences), after the reaction the substrate was separated by capillary electrophoresis into two populations: phosphorylated and unphosphorylated. The relative amounts of each were quantitated by fluorescence intensity. LRRK2 Ki was determined according to the equation: Y=V0*(1−((x+Ki*(1+S/Km)+Et)/(2*Et)−(((x+Ki*(1+S/Km)+Et)^2−(4*Et*x))^0.5)/(2*Et))).
Ki values in Table 4 and elsewhere herein are shown in μM.
For serial dilutions, 34.6 μl DMSO was added to columns 3-24.
In Complete Reaction Buffer, substrate was diluted to 4 μM. Equal volumes of Complete Reaction Buffer and 4 μM substrate were combined to obtain the blank. Equal volumes of Complete Reaction Buffer and 4 μM substrate were combined and to the combined solution was added 2× final LRRK2 concentration.
To a 50 μl polypropylene plate, 5 μl/well buffer/substrate was added by hand to Blank wells. A Biomek FX was used to start the kinase reaction (“PLK SAR 23 ATP”). The following were added to the appropriate wells:
The plate was incubated for 2 hours in the dark. Biomek FX was used to stop the kinase reaction (“PLK Stop”), and 10 μl/well Stop solution was added to the Assay Plate. Results were read on the LabChip 3000.
The LabChip 3000 was run using the job “LRRK2 IC50” with the following job settings: […]

LRRK2, sequence (Q5S007 whole entry G2019S): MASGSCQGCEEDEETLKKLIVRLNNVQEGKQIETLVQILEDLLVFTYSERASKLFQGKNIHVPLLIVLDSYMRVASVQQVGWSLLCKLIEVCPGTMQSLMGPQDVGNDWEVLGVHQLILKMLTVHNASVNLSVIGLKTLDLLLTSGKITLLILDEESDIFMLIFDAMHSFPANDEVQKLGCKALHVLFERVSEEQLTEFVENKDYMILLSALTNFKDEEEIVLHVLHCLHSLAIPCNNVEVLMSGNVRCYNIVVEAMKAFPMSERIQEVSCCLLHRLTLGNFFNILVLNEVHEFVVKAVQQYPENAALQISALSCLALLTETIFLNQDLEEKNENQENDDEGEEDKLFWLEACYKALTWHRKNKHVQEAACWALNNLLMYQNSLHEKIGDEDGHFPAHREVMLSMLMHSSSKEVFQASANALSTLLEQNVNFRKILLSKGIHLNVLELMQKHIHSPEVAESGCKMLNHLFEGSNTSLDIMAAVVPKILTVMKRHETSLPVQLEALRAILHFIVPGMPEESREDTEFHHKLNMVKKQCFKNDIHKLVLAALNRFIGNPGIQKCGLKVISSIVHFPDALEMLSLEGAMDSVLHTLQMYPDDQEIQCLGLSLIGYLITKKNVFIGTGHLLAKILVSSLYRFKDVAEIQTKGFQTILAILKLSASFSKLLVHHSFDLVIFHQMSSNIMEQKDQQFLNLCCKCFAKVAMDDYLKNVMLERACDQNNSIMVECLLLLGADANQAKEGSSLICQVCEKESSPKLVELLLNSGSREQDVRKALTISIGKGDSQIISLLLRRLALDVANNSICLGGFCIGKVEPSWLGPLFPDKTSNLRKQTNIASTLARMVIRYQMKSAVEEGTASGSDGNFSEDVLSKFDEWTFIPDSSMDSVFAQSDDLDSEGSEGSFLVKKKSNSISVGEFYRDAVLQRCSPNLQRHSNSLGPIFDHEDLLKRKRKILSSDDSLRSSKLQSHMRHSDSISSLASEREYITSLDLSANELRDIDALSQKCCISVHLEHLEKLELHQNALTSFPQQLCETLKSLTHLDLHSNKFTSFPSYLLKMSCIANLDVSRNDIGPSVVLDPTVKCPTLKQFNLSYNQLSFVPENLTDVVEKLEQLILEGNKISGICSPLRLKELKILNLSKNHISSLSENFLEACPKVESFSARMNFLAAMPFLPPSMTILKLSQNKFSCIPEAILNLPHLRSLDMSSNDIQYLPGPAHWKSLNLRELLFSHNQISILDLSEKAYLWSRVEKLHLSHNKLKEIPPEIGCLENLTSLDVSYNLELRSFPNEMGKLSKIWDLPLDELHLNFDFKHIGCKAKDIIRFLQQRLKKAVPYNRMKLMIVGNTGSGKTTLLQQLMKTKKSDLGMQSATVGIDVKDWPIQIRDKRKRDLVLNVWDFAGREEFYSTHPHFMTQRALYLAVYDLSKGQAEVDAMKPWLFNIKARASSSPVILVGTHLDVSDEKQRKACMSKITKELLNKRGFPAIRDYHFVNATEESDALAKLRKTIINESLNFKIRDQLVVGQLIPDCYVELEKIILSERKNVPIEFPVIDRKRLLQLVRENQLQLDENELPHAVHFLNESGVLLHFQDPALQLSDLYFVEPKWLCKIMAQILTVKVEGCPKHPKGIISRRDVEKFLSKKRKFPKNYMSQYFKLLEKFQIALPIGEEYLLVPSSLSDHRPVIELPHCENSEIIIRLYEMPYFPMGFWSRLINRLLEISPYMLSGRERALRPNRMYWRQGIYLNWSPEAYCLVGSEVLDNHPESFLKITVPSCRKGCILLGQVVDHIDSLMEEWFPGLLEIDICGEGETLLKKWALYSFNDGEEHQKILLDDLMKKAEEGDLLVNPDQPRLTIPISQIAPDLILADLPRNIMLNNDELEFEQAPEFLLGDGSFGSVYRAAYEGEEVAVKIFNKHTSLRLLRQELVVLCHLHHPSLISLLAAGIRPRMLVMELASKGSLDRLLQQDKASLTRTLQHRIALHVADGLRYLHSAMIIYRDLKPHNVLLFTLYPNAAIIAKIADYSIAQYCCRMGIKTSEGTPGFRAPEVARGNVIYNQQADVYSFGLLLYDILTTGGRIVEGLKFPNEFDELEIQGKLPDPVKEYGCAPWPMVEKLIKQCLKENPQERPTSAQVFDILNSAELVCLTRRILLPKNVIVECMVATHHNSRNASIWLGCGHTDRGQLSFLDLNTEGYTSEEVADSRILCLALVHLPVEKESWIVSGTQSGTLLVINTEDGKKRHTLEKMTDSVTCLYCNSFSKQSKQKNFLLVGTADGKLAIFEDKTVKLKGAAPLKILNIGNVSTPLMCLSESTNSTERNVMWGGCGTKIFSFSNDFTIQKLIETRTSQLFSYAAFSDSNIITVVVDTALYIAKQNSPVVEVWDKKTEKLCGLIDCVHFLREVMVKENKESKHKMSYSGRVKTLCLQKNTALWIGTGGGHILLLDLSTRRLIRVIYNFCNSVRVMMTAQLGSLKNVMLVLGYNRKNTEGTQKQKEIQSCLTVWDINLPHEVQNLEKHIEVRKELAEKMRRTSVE

The term Ki denotes a dissociation constant, usually derived from enzyme kinetics or from competition with a known ligand. Read a low Ki as a stronger hold on the target. Consider `CCNc1nc(Nc2cn(C(C)(C)c3nnc(CC)o3)nc2C)ncc1C(F)(F)F` [Example 29, N4-ethyl-N2-(1-(2-(5-ethyl-1,3,4-oxadiazol-2-yl)propan-2-yl)-3-methyl-1H-pyrazol-4-yl)-5-(trifluoromethyl)pyrimidine-2,4-diamine], for which affinity was put at a Ki of 6.5 nM.

For the compound `CNc1nc(Nc2cnn(CC(C)c3ccn(C)n3)c2C)ncc1C(F)(F)F` (stereo not shown) [Example 25, N4-methyl-N2-(5-methyl-1-(2-(1-methyl-1H-pyrazol-3-yl)propyl)-1H-pyrazol-4-yl)-5-(trifluoromethyl)pyrimidine-2,4-diamine], the affinity, expressed as Ki, was 108 nM.

Regarding `CNc1nc(Nc2cnn(C3CCOC[C@@H]3F)c2C)ncc1C(F)(F)F` (stereo partly drawn) [Example 40, N2-(1-((3R)-3-fluorotetrahydro-2H-pyran-4-yl)-5-methyl-1H-pyrazol-4-yl)-N4-methyl-5-(trifluoromethyl)pyrimidine-2,4-diamine], the inhibition constant Ki was 0.6 nM.

The compound `CNc1nc(Nc2cnn(S(=O)(=O)CCOC)c2C)ncc1C(F)(F)F` [Example 22, N2-(1-((2-methoxyethyl)sulfonyl)-5-methyl-1H-pyrazol-4-yl)-N4-methyl-5-(trifluoromethyl)pyrimidine-2,4-diamine] displayed an inhibitory constant (Ki) of 6.46 nM.

Values taken from patent US9212173B2, “Pyrazole aminopyrimidine derivatives as LRRK2 modulators” (Genentech, Inc., priority 2012, dated 2015).
